# Earlier results as cited in patent US20020148003A1, “Transgenic plant or plants with a naturally high water content overproducing at least two amino acids of the aspartate family” (AVEBE, priority 1996, published 2002).
# Legend:
# [1] = target: plant aspartate kinase (AK) sensitive to lysine; details: plant AKs, lysine inhibition; read-out: I50 of plant AKs sensitive to lysine
# [2] = test system: plant dihydrodipicolinate synthase (DHPS)
# E. coli DHPS = E. coli DHPS (Escherichia coli, UniProt P0A6L2); details: lysine inhibition, read-out: I50 of E. coli DHPS for lysine
# Chain of E. coli DHPS (P0A6L2 whole entry): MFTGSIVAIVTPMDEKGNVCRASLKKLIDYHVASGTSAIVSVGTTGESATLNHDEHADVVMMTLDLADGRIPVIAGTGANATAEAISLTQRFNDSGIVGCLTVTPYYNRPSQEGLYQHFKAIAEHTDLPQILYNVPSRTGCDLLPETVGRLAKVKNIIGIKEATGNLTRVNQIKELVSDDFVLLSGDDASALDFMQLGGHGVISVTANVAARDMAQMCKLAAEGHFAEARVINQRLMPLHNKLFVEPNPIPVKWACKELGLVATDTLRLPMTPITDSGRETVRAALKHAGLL
structure (smiles),measurement,setting,value
NCCCC[C@H](N)C(=O)O [lysine],IC50,[1],100 to 700 µM
same,"sensitivity to lysine inhibition, plant DHPS versus E. coli DHPS",[2]; plant DHPS more sensitive than E. coli DHPS,about 100 fold
same,"sensitivity to lysine inhibition, plant DHPS versus plant AKs",[2]; plant DHPS more sensitive than lysine-sensitive plant AKs,about 10 fold
same,IC50,"[2]; plant DHPS, feedback inhibition by end product, read-out: I50 of DHPS for lysine",10 to 50 µM
same,IC50,E. coli DHPS,~1000 µM
